Measurements: PubChem BioAssay (NCI)
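Tested at 5 concentrations; 48 h exposure; 96-well plates; endpoints linearly interpolated, else capped at highest concentration. GI50 is the concentration that inhibits growth by half. TGI: total growth inhibition.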

Assays:
Assay in all cases: NCI-60 cell line screen, 48 h
HL-60(TB) leukemia = test system: HL-60(TB) leukemia
SK-OV-3 ovarian = test system: SK-OV-3 ovarian
SR leukemia = test system: SR leukemia
NCI/ADR-RES ovarian = test system: NCI/ADR-RES ovarian
TK-10 renal = test system: TK-10 renal
KM12 colon = test system: KM12 colon
RPMI-8226 leukemia = test system: RPMI-8226 leukemia
CAKI-1 renal = test system: CAKI-1 renal
A498 renal = test system: A498 renal
786-0 renal = test system: 786-0 renal
OVCAR-5 ovarian = test system: OVCAR-5 ovarian
HCC-2998 colon = test system: HCC-2998 colon
HCT-116 colon = test system: HCT-116 colon
SF-539 CNS = test system: SF-539 CNS
HS 578T breast = test system: HS 578T breast
UACC-62 melanoma = test system: UACC-62 melanoma
SW-620 colon = test system: SW-620 colon
ACHN renal = test system: ACHN renal
IGROV1 ovarian = test system: IGROV1 ovarian
LOX IMVI melanoma = test system: LOX IMVI melanoma
SF-268 CNS = test system: SF-268 CNS
SK-MEL-2 melanoma = test system: SK-MEL-2 melanoma
A549 NSCLC = test system: A549 NSCLC
T-47D breast = test system: T-47D breast
MDA-MB-231 breast = test system: MDA-MB-231 breast
SK-MEL-28 melanoma = test system: SK-MEL-28 melanoma
K-562 leukemia = test system: K-562 leukemia
MCF7 breast = test system: MCF7 breast
MALME-3M melanoma = test system: MALME-3M melanoma
BT-549 breast = test system: BT-549 breast
SF-295 CNS = test system: SF-295 CNS
SNB-19 CNS = test system: SNB-19 CNS
SN12C renal = test system: SN12C renal
MDA-MB-435 = test system: MDA-MB-435
HOP-62 NSCLC = test system: HOP-62 NSCLC
OVCAR-4 ovarian = test system: OVCAR-4 ovarian
SNB-75 CNS = test system: SNB-75 CNS
COLO 205 colon = test system: COLO 205 colon
UO-31 renal = test system: UO-31 renal
PC-3 prostate = test system: PC-3 prostate
CCRF-CEM leukemia = test system: CCRF-CEM leukemia
NCI-H226 lung = test system: NCI-H226 lung
OVCAR-8 ovarian = test system: OVCAR-8 ovarian
OVCAR-3 ovarian = test system: OVCAR-3 ovarian
SK-MEL-5 melanoma = test system: SK-MEL-5 melanoma
UACC-257 melanoma = test system: UACC-257 melanoma
HT29 colon = test system: HT29 colon
NCI-H460 lung = test system: NCI-H460 lung
M14 melanoma = test system: M14 melanoma
HOP-92 NSCLC = test system: HOP-92 NSCLC
DU-145 prostate = test system: DU-145 prostate
MOLT-4 leukemia = test system: MOLT-4 leukemia
HCT-15 colon = test system: HCT-15 colon
NCI-H522 lung = test system: NCI-H522 lung
NCI-H23 lung = test system: NCI-H23 lung

**Q.** Which results are given for `O=C(NCCCN1CCC(N2CCCCC2)CC1)C1=Cc2cc(Br)ccc2OC1`?
**A.** GI50 (HL-60(TB) leukemia): 4.94 µM; TGI (HL-60(TB) leukemia): 19.3 µM; GI50 (SK-OV-3 ovarian): 16.2 µM; TGI (SK-OV-3 ovarian): 30.9 µM; GI50 (SR leukemia): 2.5 µM; TGI (SR leukemia): 6.15 µM; GI50 (NCI/ADR-RES ovarian): 19.1 µM; TGI (NCI/ADR-RES ovarian): 52.2 µM; GI50 (TK-10 renal): 14.3 µM; TGI (TK-10 renal): 27.7 µM; GI50 (KM12 colon): 13.7 µM; TGI (KM12 colon): 27.8 µM; GI50 (RPMI-8226 leukemia): 4.54 µM; TGI (RPMI-8226 leukemia): 22.4 µM; GI50 (CAKI-1 renal): 2.46 µM; TGI (CAKI-1 renal): 6.09 µM; GI50 (A498 renal): 3.88 µM; TGI (A498 renal): 18.7 µM; GI50 (786-0 renal): 11.2 µM; TGI (786-0 renal): 25.8 µM; GI50 (OVCAR-5 ovarian): 19.9 µM; TGI (OVCAR-5 ovarian): 70.2 µM; GI50 (HCC-2998 colon): 13.5 µM; TGI (HCC-2998 colon): 27.2 µM; GI50 (HCT-116 colon): 5.29 µM; TGI (HCT-116 colon): 21.8 µM; GI50 (SF-539 CNS): 2.09 µM; TGI (SF-539 CNS): 5.04 µM; GI50 (HS 578T breast): 12.2 µM; TGI (HS 578T breast): 33.4 µM; GI50 (UACC-62 melanoma): 1.83 µM; TGI (UACC-62 melanoma): 3.49 µM; GI50 (SW-620 colon): 5.16 µM; TGI (SW-620 colon): 19 µM; GI50 (ACHN renal): 10.2 µM; TGI (ACHN renal): 27 µM; GI50 (IGROV1 ovarian): 15.9 µM; TGI (IGROV1 ovarian): 39.4 µM; GI50 (LOX IMVI melanoma): 2.59 µM; TGI (LOX IMVI melanoma): 5.73 µM; GI50 (SF-268 CNS): 3.51 µM; TGI (SF-268 CNS): 13 µM; GI50 (SK-MEL-2 melanoma): 8.14 µM; TGI (SK-MEL-2 melanoma): 22.1 µM; GI50 (A549 NSCLC): 5.66 µM; TGI (A549 NSCLC): 20.1 µM; GI50 (T-47D breast): 2.04 µM; TGI (T-47D breast): 4.98 µM; GI50 (MDA-MB-231 breast): 3.62 µM; TGI (MDA-MB-231 breast): 13.8 µM; GI50 (SK-MEL-28 melanoma): 1.83 µM; TGI (SK-MEL-28 melanoma): 3.54 µM; GI50 (K-562 leukemia): 1.98 µM; TGI (K-562 leukemia): 4.63 µM; GI50 (MCF7 breast): 4.45 µM; TGI (MCF7 breast): 17.1 µM; GI50 (MALME-3M melanoma): 2.11 µM; TGI (MALME-3M melanoma): 3.89 µM; GI50 (BT-549 breast): 13.9 µM; TGI (BT-549 breast): 33 µM; GI50 (SF-295 CNS): 8.58 µM; TGI (SF-295 CNS): 24.8 µM; GI50 (SNB-19 CNS): 14.2 µM; TGI (SNB-19 CNS): 31.3 µM; GI50 (SN12C renal): 10.4 µM; TGI (SN12C renal): 24.1 µM; GI50 (MDA-MB-435): 1.69 µM; TGI (MDA-MB-435): 3.55 µM; GI50 (HOP-62 NSCLC): 13.8 µM; TGI (HOP-62 NSCLC): 27.2 µM; GI50 (OVCAR-4 ovarian): 10 µM; TGI (OVCAR-4 ovarian): 32 µM; GI50 (SNB-75 CNS): 10.9 µM; TGI (SNB-75 CNS): 23.3 µM; GI50 (COLO 205 colon): 2.16 µM; TGI (COLO 205 colon): 4.29 µM; GI50 (UO-31 renal): 6.71 µM; TGI (UO-31 renal): 20.4 µM; GI50 (PC-3 prostate): 11.7 µM; TGI (PC-3 prostate): 26.8 µM; GI50 (CCRF-CEM leukemia): 4.24 µM; TGI (CCRF-CEM leukemia): 20.2 µM; GI50 (NCI-H226 lung): 16.9 µM; TGI (NCI-H226 lung): 34.5 µM; GI50 (OVCAR-8 ovarian): 4.82 µM; TGI (OVCAR-8 ovarian): 26.9 µM; GI50 (OVCAR-3 ovarian): 12.3 µM; TGI (OVCAR-3 ovarian): 26.8 µM; GI50 (SK-MEL-5 melanoma): 1.89 µM; TGI (SK-MEL-5 melanoma): 3.61 µM; GI50 (UACC-257 melanoma): 1.9 µM; TGI (UACC-257 melanoma): 3.89 µM; GI50 (HT29 colon): 3.21 µM; TGI (HT29 colon): 12.5 µM; GI50 (NCI-H460 lung): 8.43 µM; TGI (NCI-H460 lung): 23.6 µM; GI50 (M14 melanoma): 2.22 µM; TGI (M14 melanoma): 4.71 µM; GI50 (HOP-92 NSCLC): 3.68 µM; TGI (HOP-92 NSCLC): 19.8 µM; GI50 (DU-145 prostate): 15.5 µM; TGI (DU-145 prostate): 30.4 µM; GI50 (MOLT-4 leukemia): 7.41 µM; TGI (MOLT-4 leukemia): 26.3 µM; GI50 (HCT-15 colon): 3.47 µM; TGI (HCT-15 colon): 17.1 µM; GI50 (NCI-H522 lung): 2.32 µM; TGI (NCI-H522 lung): 6.12 µM; GI50 (NCI-H23 lung): 16.9 µM; TGI (NCI-H23 lung): 36.2 µM
